Experiments:
Assay type in all cases: in vivo
Galium aparine [1] = test: greenhouse pot test, post-emergence early stage treatment; conditions: GALAP
Procedure: (§1) The test soil is a formulated sandy loam soil. 9.5 centimeter diameter pots are used for herbicidal activity test.
(§2) The pots for post-emergence treatment are placed into a greenhouse and incubated for 7 to 9 days, and then subjected to leave treatment by spraying. The preparation liquid for the treatment prepared by mixing individual single-herbicides was diluted with water to the desired dosage.
(§3) The treated pots stood for one day, then were placed in a greenhouse and watered regularly. The herbicidal activities of the compositions were evaluated by visual examination after incubating for 14 to 21 days.
(§4) The herbicidal activities of the compositions were evaluated by plant symptoms such as stunting, deformity, chlorosis, and whitening. 0 represents that the compositions have no herbicidal effect or have safety to crops. 100 represents that the weeds or crops were completely killed.

Cerastium arvense = test: as above; conditions: CERAR
Procedure: as §1, §2, §3, §4

Alopercurus japonicus [2] = test: as above; conditions: ALOJA
Procedure: as §1, §2, §3, §4

Poa annua [3] = test: as above; conditions: POAAN
Procedure: as §1, §2, §3, §4

Galium aparine [4] = test: greenhouse pot test, post-emergence treatment; conditions: GALAP
Procedure: as §1, §2, §3, §4

Veronica didyma = test: greenhouse pot test, post-emergence treatment; conditions: VERDI
Procedure: as §1, §2, §3, §4

Alopercurus japonicus [5] = test: greenhouse pot test, post-emergence treatment; conditions: ALOJA
Procedure: as §1, §2, §3, §4

Poa annua [6] = test: greenhouse pot test, post-emergence treatment; conditions: POAAN
Procedure: as §1, §2, §3, §4

CCOCN(C(=O)CCl)c1c(C)cccc1CC [acetochlor]
visual evaluation of weed effects (Galium aparine [1]; 150 g/ha): 40% | visual evaluation of weed effects (Galium aparine [1]; 300 g/ha): 50% | visual evaluation of weed effects (Galium aparine [1]; 450 g/ha): 60% | visual evaluation of weed effects (Galium aparine [1]; 600 g/ha): 70% | visual evaluation of weed effects (Cerastium arvense; 150 g/ha): 70% | visual evaluation of weed effects (Cerastium arvense; 300 g/ha): 85% | visual evaluation of weed effects (Cerastium arvense; 450 g/ha): 85% | visual evaluation of weed effects (Cerastium arvense; 600 g/ha): 85% | visual evaluation of weed effects (Alopercurus japonicus [2]; 150 g/ha): 60% | visual evaluation of weed effects (Alopercurus japonicus [2]; 300 g/ha): 90% | visual evaluation of weed effects (Alopercurus japonicus [2]; 450 g/ha): 95% | visual evaluation of weed effects (Alopercurus japonicus [2]; 600 g/ha): 95% | visual evaluation of weed effects (Poa annua [3]; 150 g/ha): 70% | visual evaluation of weed effects (Poa annua [3]; 300 g/ha): 90% | visual evaluation of weed effects (Poa annua [3]; 450 g/ha): 95% | visual evaluation of weed effects (Poa annua [3]; 600 g/ha): 95%

O=C(O)Cn1c(=O)sc2cccc(Cl)c21 [benazolin]
visual evaluation of weed effects (Galium aparine [4]; 75 g/ha): 70% | visual evaluation of weed effects (Galium aparine [4]; 150 g/ha): 90% | visual evaluation of weed effects (Galium aparine [4]; 225 g/ha): 100% | visual evaluation of weed effects (Galium aparine [4]; 300 g/ha): 100% | visual evaluation of weed effects (Veronica didyma; 75 g/ha): 60% | visual evaluation of weed effects (Veronica didyma; 150 g/ha): 90% | visual evaluation of weed effects (Veronica didyma; 225 g/ha): 98% | visual evaluation of weed effects (Veronica didyma; 300 g/ha): 100% | visual evaluation of weed effects (Alopercurus japonicus [5]; 75 g/ha): 0% | visual evaluation of weed effects (Alopercurus japonicus [5]; 150 g/ha): 0% | visual evaluation of weed effects (Alopercurus japonicus [5]; 225 g/ha): 0% | visual evaluation of weed effects (Alopercurus japonicus [5]; 300 g/ha): 0% | visual evaluation of weed effects (Poa annua [6]; 75 g/ha): 0% | visual evaluation of weed effects (Poa annua [6]; 150 g/ha): 0% | visual evaluation of weed effects (Poa annua [6]; 225 g/ha): 0% | visual evaluation of weed effects (Poa annua [6]; 300 g/ha): 0%

Reference: US20060276340A1, “HERBICIDE COMPOSITION COMPRISING PYRIBAMBENZ-PROPYL OR PYRIBAMBENZ-ISOPROPYL” (Zhejiang Chem-Tech Group Co., Ltd., priority 2003, published 2006)
